Data taken from article PMC11054303, “Design and Synthesis of Novel N-Benzylidene Derivatives of 3-Amino-4-imino-3,5-dihydro-4H-chromeno[2,3-d]pyrimidine under Microwave, In Silico ADME Predictions, In Vitro Antitumoral Activities and In Vivo Toxicity” (Pharmaceuticals, 2024).

Legend:
[1] = Antiproliferative assay, Caco2; type: cell-based, human; conditions: human, Caco-2; SI = IC50 fibroblasts/IC50 on Caco2; read-out: Selectivity Index (SI) Caco2
Protocol: (§1) The potential antiproliferative activity of these novel 3-(N-phenylmethyliden)amino-4-imino-3,5-dihydro-4H-chromeno[2,3-d]pyrimidine 10(a-i) and 10-(N-phenylmethyliden)amino-11-imino-11H-naphto[1′,2′:5,6]pyrano[2,3-d]pyrimidine 10(j-l) was evaluated in a panel of eight tumoral cell lines and in diploid skin fibroblasts used as normal cell lines for control. For these antitumor assays, chosen cell lines represent diverse types of human cancer, which are, respectively, human hepatocellular carcinoma (Huh7 D12), human colon adenocarcinoma (Caco2), human breast adenocarcinoma (MDA-MB231), MDA-MB468 for human breast carcinoma which correspond to the Triple Negative Breast Cancer (TNBC), human colon carcinoma (HCT116), PC3 as cell line initiated from bone metastasis of grade IV prostatic adenocarcinoma from a person, MCF7 as breast cancer line isolated from a person and PANC1, as human pancreatic cancer cell line. The potential antiproliferative activity was preliminarily evaluated in vitro at a 25 μM single dose.
(§2) The IC50 was calculated from the full dose-response curve and used as a parameter for the antiproliferative activity of the new compounds.
(§3) Skin diploid fibroblastic cells were provided by BIOPREDIC International Company (Rennes, France). Huh-7D12 (Ref ECACC: 01042712), Caco2 (Ref ECACC: 86010202), MDA-MB-231 (Ref ECACC: 92020424), MDA-MB-468, HCT-116 (Ref ECACC: 91091005), PC3 (Ref ECACC: 90112714), and MCF7 cell lines were obtained from the ECACC collection. PANC1 cell lines, a generous gift of LBAI Inserm 1227 (Brest, France). Cells were grown according to ECACC recommendations in DMEM for Huh-D12, MDA-MB-231, MDA-MB-468 and fibroblast, in EMEM for Caco2, in McCoy’s for HCT-116 and RPMI for PC3 at 37 °C and 5% CO2. All culture media with 10% of FBS, 1% of penicillin-streptomycin and 2 mM glutamine.
(§4) Chemicals were solubilized in DMSO at a concentration of 10 mM (stock solution) and diluted in a culture medium to the desired final concentrations. […] The toxicity test of the chemicals on these cells was as follows: 2 × 10^3 cells for HCT-116 cells or 4 × 10^3 for the other cells were seeded in 96-multi-well plates in triplicate and left for 24 h for attachment, spreading and growing. Then, cells were exposed for 48 h to increasing concentrations of chemicals, ranging from 0.1 μM to 25 μM, in a final volume of 120 μL of culture medium. After 48 h of treatment, cells were washed in PBS and fixed in a cooled 90% ethanol/5% acetic acid solution for 20 min. The nuclei were stained with Hoechst 3342 (B2261 Merck Sigma-Aldrich) and counted. Image acquisition and analysis were performed using automated imaging analysis with a Cellomics Arrayscan VTI/HCS Reader (Thermo/Scientific, Waltham, MA, USA). The survival percentages were calculated as the percentage of cell number after chemical treatment over cell number after DMSO treatment. The IC50 was graphically determined.

Caco2 = assay: Antiproliferative assay, Caco2; type: cell-based, human; conditions: Homo sapiens, Caco-2; 48 h incubation; average of three assays, standard error ± 0.5 μM
Protocol: as §1, §2, §3, §4

Huh7 D12 = assay: Antiproliferative assay, Huh7 D12; type: cell-based, human; conditions: for IC50: Homo sapiens, Huh-7D12, 48 h incubation, average of three assays, standard error ± 0.5 μM; for Selectivity Index (SI) Huh7 D12: SI = IC50 fibroblasts/IC50 on Huh7 D12
Protocol: as §1, §2, §3, §4

PC3 = assay: Antiproliferative assay, PC3; type: cell-based, human; conditions: for IC50: Homo sapiens, PC-3, 48 h incubation, average of three assays, standard error ± 0.5 μM; for Selectivity Index (SI) PC3: SI = IC50 fibroblasts/IC50 on PC3
Protocol: as §1, §2, §3, §4

MDA MB468 = assay: Antiproliferative assay, MDA MB468; type: cell-based, human; conditions: for IC50: Homo sapiens, MDA-MB-468, 48 h incubation, average of three assays, standard error ± 0.5 μM; for Selectivity Index (SI) MDA MB468: SI = IC50 fibroblasts/IC50 on MDA MB468
Protocol: as §1, §2, §3, §4

tumor cell lines = assay: Antiproliferative assay, panel of tumoral cell lines; type: cell-based; conditions: Homo sapiens, 48 h, summary over tumoral cell lines of Table 3, 48 h; read-out: IC50 on tumor cell lines (span over the panel)
Protocol: as §1, §2, §3, §4

MCF7 = assay: Antiproliferative assay, MCF7; type: cell-based, human; conditions: for IC50: Homo sapiens, MCF7, 48 h incubation, average of three assays, standard error ± 0.5 μM; for Selectivity Index (SI) MCF7: SI = IC50 fibroblasts/IC50 on MCF7
Protocol: as §1, §2, §3, §4

MDA MB231 = assay: Antiproliferative assay, MDA MB231; type: cell-based, human; conditions: for IC50: Homo sapiens, MDA-MB-231, 48 h incubation, average of three assays, standard error ± 0.5 μM; for Selectivity Index (SI) MDA MB231: SI = IC50 fibroblasts/IC50 on MDA MB231
Protocol: as §1, §2, §3, §4

Fibroblasts = assay: Antiproliferative assay, diploid skin fibroblasts (normal cells); type: cell-based; conditions: for IC50: Fibroblast, 48 h incubation, average of three assays, standard error ± 0.5 μM
Protocol: as §1, §2, §3, §4

HCT 116 = assay: Antiproliferative assay, HCT 116; type: cell-based, human; conditions: for IC50: Homo sapiens, HCT-116, 48 h incubation, average of three assays, standard error ± 0.5 μM; for Selectivity Index (SI) HCT 116: SI = IC50 fibroblasts/IC50 on HCT 116
Protocol: as §1, §2, §3, §4

PANC1 = assay: Antiproliferative assay, PANC1; type: cell-based, human; conditions: for IC50: Homo sapiens, PANC-1, 48 h incubation, average of three assays, standard error ± 0.5 μM; for Selectivity Index (SI) PANC1: SI = IC50 fibroblasts/IC50 on PANC1
Protocol: as §1, §2, §3, §4

[2] = system: zebrafish Danio rerio embryos; assay: Zebrafish embryo toxicity assay (Zebratox, FET)
Protocol: Fertilized eggs at 24–48 h post-fertilization (hpf) were selected and transferred to a 96-well plate (1 embryo/well). […] DMSO (0.6%) was used as vehicle control for the test compounds. The exposure duration continued up to 72 hpf because it is the endpoint of embryonic development [41]. The dead embryos were eliminated, and the fertilized eggs were imaged at 0, 24, 48 and 72 hpf.
Eggs were collected 2 h post-fertilization (hpf) and kept in glass Petri dishes containing water for subsequent examination under a binocular microscope to confirm fertilization. […] Chemical treatments were performed by adding DMSO alone (negative control), or test molecule. These experiments were performed in four technical replicates.
The experiments were performed using a Zeiss inverted fluorescent microscope (Observer Z1). The zebrafish toxicological test (Zebratox) was realized as follows: the 24 h post-fertilization embryos were arrayed by hand with one embryo per well in black-walled 96-well microplates for fluorescence assays (Perkin Elmer, Waltham, MA, USA). The embryos were treated before hatching from 0 to 72 h post-fertilization. The 20 mM DMSO stock chemicals were diluted in fish water and added to the wells at final concentrations from 0.0 2µM to 5 μM. The negative control (0.25% DMSO) was added to each replicate plate. The experiments were realized in triplicate in three independent plates. […] The zebrafish fertilized eggs were provided by the ImPACcell-Biosit Zebrafish facilities (Rennes, France).

Row | SMILES | selectivity ratio at 48 h [1] | IC50 (Caco2) [µM] | IC50 (Huh7 D12) [µM] | Selectivity Index (SI) Huh7 D12 (Huh7 D12) | IC50 (PC3) [µM] | Selectivity Index (SI) PC3 (PC3) | IC50 (MDA MB468) [µM] | Selectivity Index (SI) MDA MB468 (MDA MB468) | IC50 (tumor cell lines) [µM] | IC50 (MCF7) [µM] | Selectivity Index (SI) MCF7 (MCF7) | IC50 (MDA MB231) [µM] | Selectivity Index (SI) MDA MB231 (MDA MB231) | effect on fibroblasts (healthy skin cell), in words (Fibroblasts) | IC50 (Fibroblasts) [µM] | IC50 (HCT 116) [µM] | Selectivity Index (SI) HCT 116 (HCT 116) | IC50 (PANC1) [µM] | Selectivity Index (SI) PANC1 (PANC1) | also measured
1 | COc1cccc2c1Oc1ncn(/N=C/c3ccc(N(C)C)cc3)c(=N)c1C2 [10g, (3E) 3-N-(4-Dimethylaminophenylmethylidene)amino-4-imino-9-methoxy-3,5-dihydro-4H-chromeno[2,3-d]pyrimidine] | 1.1 | 10 | 6 | 1.83 | 16 | 0.69 | 18 | 0.61 | 1 to 25 | 10 | 1.1 | > 25 | < 0.44 | cytotoxic on fibroblasts | 11 | 24 | 0.46 | – | – | –
2 | N=c1c2c(ncn1/N=C/c1ccccc1O)Oc1ccc3ccccc3c1C2 [10k, (10E) 10-N-(2-Hydroxyphenylmethylidene)amino-11-imino-11H-naphto[1′,2′:5,6]pyrano[2,3-d]pyrimidine] | 1.25 | 1.2 | 1.5 | 1 | 0.4 | 3.75 | 1.8 | 0.83 | 1 to 25 | 1.2 | 1.25 | 1.1 | 1.34 | cytotoxic on fibroblasts | 1.5 | 0.6 | 2.5 | 1.6 | 0.94 | –
3 | CCN(CC)c1ccc2c(c1)Oc1ncn(/N=C/c3ccc(N(C)C)cc3)c(=N)c1C2 [10a] | – | > 25 | > 25 | – | > 25 | – | > 25 | – | – | > 25 | – | > 25 | – | – | > 25 | > 25 | – | > 25 | – | –
4 | CN(C)c1ccc(/C=N/n2cnc3c(c2=N)Cc2c(ccc4ccccc24)O3)cc1 [10j, (10E) 10-N-(4-Dimethylaminophenylmethylidene)amino-11-imino-11H-naphto[1′,2′:5,6]pyrano[2,3-d]pyrimidine] | 1.1 | 10 | 6 | 1.83 | 16 | 0.69 | 18 | 0.61 | 1 to 25 | 10 | 1.1 | > 25 | < 0.44 | cytotoxic on fibroblasts | 11 | 24 | 0.46 | – | – | –
5 | CN(C)c1ccc(/C=N/n2cnc3c(c2=N)Cc2ccccc2O3)cc1 [10d, (3E) 3-N-(4-Dimethylaminophenylmethylidene)amino-4-imino-3,5-dihydro-4H-chromeno[2,3-d]pyrimidine] | 1.4 | 10 | 11 | 1.27 | 11 | 1.27 | 11 | 1.27 | 1 to 25 | 11 | 1.27 | 11 | 1.27 | cytotoxic on fibroblasts | 14 | 11 | 1.27 | 17 | 0.82 | –
6 | CCN(CC)c1ccc2c(c1)Oc1ncn(/N=C/c3ccccc3O)c(=N)c1C2 [10b] | – | > 25 | > 25 | – | > 25 | – | > 25 | – | – | > 25 | – | > 25 | – | – | > 25 | > 25 | – | > 25 | – | –
7 | CCN(CC)c1ccc2c(c1)Oc1ncn(/N=C/c3ccccc3)c(=N)c1C2 [10c] | – | > 25 | > 25 | – | > 25 | – | > 25 | – | – | > 25 | – | > 25 | – | – | > 25 | > 25 | – | > 25 | – | –
8 | C#Cc1cccc(Nc2ncnc3cc(OCCOC)c(OCCOC)cc23)c1 [erlotinib, reference compound] | – | – | – | – | – | – | – | – | – | – | – | – | – | – | – | – | – | – | – | toxicity on zebrafish embryos ([2]; 1 μM dose, 72 hpf): no toxicity; hatching of the embryos ([2]; treatment for 48 and 72 hpf): complete hatching
9 | COc1cccc2c1C(=O)c1c(O)c3c(c(O)c1C2=O)C[C@@](O)(C(=O)CO)C[C@@H]3O[C@H]1C[C@H](N)[C@H](O)[C@H](C)O1 [Doxorubicin, reference compound] | 0.33 | 0.03 | 0.06 | 0.16 | 0.07 | 0.14 | 0.03 | 0.33 | – | 0.09 | 0.11 | 0.02 | 0.50 | – | 0.01 | 0.07 | 0.14 | – | – | –
10 | N=c1c2c(ncn1/N=C/c1ccccc1O)Oc1ccccc1C2 [10e, (3E) 3-N-(2-Hydroxyphenylmethylidene)amino-4-imino-3,5-dihydro-4H-chromeno[2,3-d]pyrimidine] | 0.8 | 2 | 1.7 | 0.94 | 0.15 | 10.67 | 2.5 | 0.64 | 1 to 25 | 1.7 | 0.94 | 1.5 | 1.07 | cytotoxic on fibroblasts | 1.6 | 0.3 | 5.33 | 2.2 | 0.73 | –
